Results taken from patent publication US9896423B2, “Deuterium substituted 1-[2-(2,4-dimethyl-phenylsulfanyl)-phenyl]piperazine compound or derivatives thereof, and pharmaceutical composition and use thereof” (Jiangsu Jibeier Pharmaceutical Co. Ltd., priority 2014, dated 2018).
Values joined by “and” are separate entries in the source; they are usually repeats but may differ in a detail not shown here. Equal values may be shown once. Where a name gives a salt, the structure may show the parent alone. Read-outs that look alike come from different tables or passages of the source.

Legend:
Male ICR mice = experiment: Mice swimming test; assay type: in vivo; conditions: for effect on length of time that the mice stopped swimming vs blank control: two successive weeks; for Duration without Movement within the Last 4 min of the Whole 6 min: mice, gavage once a day for 14 days, n = 10, x ± s
From the text: The following method is used for testing the antidepression effect of the compound of the present application. ICR mice or SD rats, gavaged for two successive weeks, were subjected to mice swimming test, mice tail suspension test and rats swimming test. See below for details of the tests and results.
Male ICR mice weighing 18 g to 20 g were used. They were fed on sterilized standard feed.
The compound administered in the test was 1-{2-[2,4-bis(trideuteriomethyl)phenylsulfanyl]phenyl}piperazine hydrobromic acid salt (XX for short). Vortioxetine (YY for short) was used as a control sample. Venlafaxine HCl (from Wyeth, USA) was used as a positive control.
Vortioxetine (15 mg) was combined with 10% hydroxypropyl-β-cyclodextrin to form a solution of 100 mL and was administered at daily dose of 3 mg/kg. 1-{2-[2,4-bis(trideuteriomethyl)phenylsulfanyl]phenyl}piperazine hydrobromic acid salt (15 mg and 7.5 mg) was combined with 10% hydroxypropyl-β-cyclodextrin to form two solutions of 100 mL and was administered at daily doses of 3 mg/kg and 1.5 mg/kg, respectively. Venlafaxine HCl (75 mg) was combined with 0.5% CMC-Na to form a solution of 100 mL and was administered at daily dose of […].
A recording and analysis system for small-animal behavior (Noldus) was used.
All the eighty mice were subjected to prescreening one day before the administration. The mice, fasted for 4 hours were put in a round glass tank (ø 14 cm×h 20 cm, with water of 10 cm depth and at a temperature of 25° C.) to swim. […] The whole swimming course was recorded by the video and the data were collected and analyzed automatically by Noldus software.
The forty qualified mice were divided into 4 groups, each of which had 10 mice, according to the Excel random grouping.
The medicaments were administered to each group by gavage with the amount of 0.2 ml per 10 g of body weight, once a day for 14 successive days. One hour later after the last oral administration, the mice were allowed to swim for 6 min. The video recorded the whole swimming course, and the Noldus software automatically collected and analyzed the data.
The data was given as “average±standard deviation” (x±s). One-way analysis of variance (one-way ANOVA) was used for data difference statistics. Differences among the groups were determined by P<0.05.

[1] = Pharmacokinetic test in rats, gavage administration; assay type: in vivo, SD rats
Protocol: The preferred compound of the present disclosure was assessed in rats for its pharmacokinetic profile.
SD rats, male and female, weighing 150 to 250 g
Mobile phase: 10 mM ammonium formate aqueous solution:methanol=15:85
The ionization source was electrospray ionization source. The detection mode was positive mode. Multiple reaction monitoring (MRM) was used as the scanning mode. The ion reaction for the quantitative analysis was the following: m/z was 305.2\150.0 for XX, and 256.1\167.1 for diphenhydramine (the internal standard).
XX or YY was orally administered with single dose of 20 mg/kg to six SD rats, one half of which were male and the other half was female. XX or YY was dissolved in 10% hydroxypropyl-β-cyclodextrin. […]
After the blood collection, the tubes were immediately gently turned upside down at least five times to ensure sufficient mixing, and placed on ice. Heparin was added for anticoagulation. The samples were centrifuged at 8000 rpm for 5 min to separate serum from erythrocyte. The serum was transferred with a pipettor to 2 mL polypropylene (PP) tubes, which were marked with the name of the compound and the time points, and stored in a refrigerator at −40° C. before LC-MS analysis. Samples with high concentrations were diluted with rat blank plasma.
2.5 μL of Meth-H2O and 5 μL of the internal standard solution (20 ng/mL, IS) were added to 50 μL of the plasma. Subsequently, 150 μL of methanol was added to the mixture to precipitate protein and the samples were then centrifuged at 13000 rpm for 5 min. The upper organic phase was taken out, filtrated with a 0.22 μM microporous membrane, and 2 μL of the sample was injected for the LC-MS analysis.

bioavailability ([1]; both sexes, SD, rat, plasma, po, 20 mg/kg, rats, oral 20 mg/kg vs iv 2 mg/kg, individual rats 1-6, read-out: F %): 11%
AUC(0-t) ([1]; both sexes, SD, rat, plasma, po, 20 mg/kg, rats, oral 20 mg/kg, individual rats 1-6, read-out: AUC0-1): 524 ng·h/mL
AUC(0-inf) ([1]; both sexes, SD, rat, plasma, po, 20 mg/kg, rats, oral 20 mg/kg, individual rats 1-6, read-out: AUC0-∞): 532 ng·h/mL
Cmax ([1]; both sexes, SD, rat, plasma, po, 20 mg/kg, rats, oral 20 mg/kg, individual rats 1-6, read-out: Cmax): 78.6 ng/mL
MRT inf ([1]; both sexes, SD, rat, plasma, po, 20 mg/kg, rats, oral 20 mg/kg, individual rats 1-6, read-out: MRT0-∞): 5.62 h
AUC(0-t) ([1]; both sexes, SD, rat, plasma, po, 20 mg/kg, rats, oral 20 mg/kg, n = 6, read-out: AUC0-1, Mean ± SD): 583 ± 82.7 ng·h/mL
AUC(0-inf) ([1]; both sexes, SD, rat, plasma, po, 20 mg/kg, rats, oral 20 mg/kg, n = 6, read-out: AUC0-∞, Mean ± SD): 586 ± 82.8 ng·h/mL
Cmax ([1]; both sexes, SD, rat, plasma, po, 20 mg/kg, rats, oral 20 mg/kg, n = 6, read-out: Cmax, Mean ± SD): 105 ± 26.5 ng/mL
MRT inf ([1]; both sexes, SD, rat, plasma, po, 20 mg/kg, rats, oral 20 mg/kg, n = 6, read-out: MRT0-∞, Mean ± SD): 4.93 ± 0.58 h
half-life ([1]; both sexes, SD, rat, plasma, po, 20 mg/kg, rats, oral 20 mg/kg, n = 6, read-out: t1/2, Mean ± SD (converted)): 2.92 ± 0.8 h
concentration at 10 min ([1]; both sexes, Sprague-Dawley, rat, plasma, oral, 20 mg/kg, 20 mg/kg oral, 10 min (Table 5: 0.167 h), mean of 6 rats, read-out: Concentrations in Plasma of Rats after Oral Administration, Mean ± SD): 13.7 ± 6.65 ng/mL
concentration at 0.5 h ([1]; both sexes, Sprague-Dawley, rat, plasma, oral, 20 mg/kg, 20 mg/kg oral, 0.5 h, mean of 6 rats, read-out: Concentrations in Plasma of Rats after Oral Administration, Mean ± SD): 62.9 ± 19.6 ng/mL
SMILES: [2H]C([2H])([2H])c1ccc(Sc2ccccc2N2CCNCC2)c(C([2H])([2H])[2H])c1 [XX, 1-{2-[2,4-bis(trideuteriomethyl)phenylsulfanyl]phenyl}piperazine hydrobromic acid salt]
effect on length of time that the mice stopped swimming vs blank control (Male ICR mice; 1.5 mg/kg gavage): markedly shortened
effect on length of time that the mice stopped swimming vs blank control (Male ICR mice; 3 mg/kg gavage): markedly shortened
Duration without Movement within the Last 4 min of the Whole 6 min (Male ICR mice; 1.5 mg/kg): 173.4 ± 36.1 s
Duration without Movement within the Last 4 min of the Whole 6 min (Male ICR mice; 3 mg/kg): 176.3 ± 37.5 s
Concentrations in Plasma of Rats after Oral Administration ([1]; 20 mg/kg oral, 10 min (Table 5: 0.167 h) after administration, individual rats 1-6): 10.6 ng/mL and 7 ng/mL and 7.88 ng/mL and 24.8 ng/mL and 15.6 ng/mL and 16.2 ng/mL
Concentrations in Plasma of Rats after Oral Administration ([1]; 20 mg/kg oral, 1 h, individual rats 1-6): 68.4 ng/mL and 83.6 ng/mL and 55.2 ng/mL and 107.6 ng/mL and 144 ng/mL and 115.8 ng/mL
Concentrations in Plasma of Rats after Oral Administration ([1]; 20 mg/kg oral, 1.5 h, individual rats 1-6): 91.6 ng/mL and 77.4 ng/mL and 120.8 ng/mL and 142.8 ng/mL and 109.6 ng/mL
Concentrations in Plasma of Rats after Oral Administration ([1]; 20 mg/kg oral, 2 h, individual rats 1-6): 86.6 ng/mL and 77.8 ng/mL and 118.4 ng/mL and 119.6 ng/mL and 108 ng/mL
Concentrations in Plasma of Rats after Oral Administration ([1]; 20 mg/kg oral, 3 h, individual rats 1-6): 65.8 ng/mL and 53.8 ng/mL and 85.8 ng/mL and 77.6 ng/mL and 71.2 ng/mL
Concentrations in Plasma of Rats after Oral Administration ([1]; 20 mg/kg oral, 4 h, individual rats 1-6): 60.8 ng/mL and 56 ng/mL and 61.2 ng/mL and 85.6 ng/mL and 63.4 ng/mL
Concentrations in Plasma of Rats after Oral Administration ([1]; 20 mg/kg oral, 6 h, individual rats 1-6): 48.7 ng/mL and 36.8 ng/mL and 42.8 ng/mL and 54.6 ng/mL and 35.5 ng/mL
Concentrations in Plasma of Rats after Oral Administration ([1]; 20 mg/kg oral, 8 h, individual rats 1-6): 22.5 ng/mL and 20.9 ng/mL and 31.7 ng/mL and 25.1 ng/mL and 18.9 ng/mL
Concentrations in Plasma of Rats after Oral Administration ([1]; 20 mg/kg oral, 10 h, individual rats 1-6): 17.9 ng/mL and 15.5 ng/mL and 20.3 ng/mL and 14.9 ng/mL and 13.5 ng/mL
Concentrations in Plasma of Rats after Oral Administration ([1]; 20 mg/kg oral, 12 h, individual rats 1-6): 8.22 ng/mL and 6.78 ng/mL and 11.3 ng/mL and 7.08 ng/mL and 7.2 ng/mL
Concentrations in Plasma of Rats after Oral Administration ([1]; 20 mg/kg oral, 14 h, individual rats 1-6): 4.01 ng/mL and 3.56 ng/mL and 7.32 ng/mL and 4.43 ng/mL and 3.11 ng/mL and 3.19 ng/mL
Concentrations in Plasma of Rats after Oral Administration ([1]; 20 mg/kg oral, 24 h, individual rats 1-6): 1.46 ng/mL and 0.571 ng/mL and 0.368 ng/mL and 1.32 ng/mL and 0.365 ng/mL and 0.389 ng/mL
